Values after ≈ are worked out from the molar mass of the structure shown. Active and inactive are the calls of the source. The calls are words filed in the database; no cut-off is given here.
Tests used:
Serratia marcescens = assay: Antibacterial activity against intrinsically colistin resistant Serratia marcescens ATCC 13880 assessed as inhibition of bacterial growth incubated for 18 hrs; format: functional; conditions: read-out: MIC100
Providencia stuartii = assay: Antibacterial activity against Providencia stuartii ATCC 25826 assessed as inhibition of bacterial growth incubated for 18 hrs; format: functional; conditions: read-out: MIC100
Escherichia coli [1] = assay: Antibacterial activity against colistin resistant Escherichia coli NCTC 13846 harboring mcr-1 gene assessed as inhibition of bacterial growth incubated for 18 hrs; format: functional; conditions: read-out: MIC100
Escherichia coli [2] = assay: Antibacterial activity against Escherichia coli Swiss 7 harboring mcr-1 gene assessed as inhibition of bacterial growth incubated for 18 hrs; format: functional; conditions: read-out: MIC100
Klebsiella pneumoniae [3] = assay: Antibacterial activity against Klebsiella pneumoniae ATCC 43816 assessed as inhibition of bacterial growth incubated for 18 hrs; format: functional; conditions: read-out: MIC100
Klebsiella pneumoniae [4] = assay: Antibacterial activity against Klebsiella pneumoniae ATCC BAA-2470 expressing NDM-1 assessed as inhibition of bacterial growth incubated for 18 hrs; format: functional; conditions: read-out: MIC100
[5] = Cytotoxicity against human HepG2 cells incubated for 40 hrs by celltiter-glo luminescent cell viability assay; format: toxicity, cell-based
Escherichia coli [6] = assay: Antibacterial activity against Escherichia coli Swiss 9 harboring mcr-1 gene assessed as inhibition of bacterial growth incubated for 18 hrs; format: functional; conditions: read-out: MIC100
Klebsiella pneumoniae [7] = assay: Antibacterial activity against wild-type Klebsiella pneumoniae ATCC 13883 assessed as inhibition of bacterial growth incubated for 18 hrs; format: functional; conditions: read-out: MIC100
Morganella morganii = assay: Antibacterial activity against Morganella morganii ATCC 25830 assessed as inhibition of bacterial growth incubated for 18 hrs; format: functional; conditions: read-out: MIC100
Klebsiella aerogenes = assay: Antibacterial activity against Enterobacter aerogenes ATCC 13048 assessed as inhibition of bacterial growth incubated for 18 hrs; format: functional; conditions: read-out: MIC100
Proteus mirabilis = assay: Antibacterial activity against Proteus mirabilis ATCC 25933 assessed as inhibition of bacterial growth incubated for 18 hrs; format: functional; conditions: read-out: MIC100
Staphylococcus aureus [8] = assay: Antibacterial activity against wild type Staphylococcus aureus USA300 assessed as inhibition of bacterial growth incubated for 18 hrs; format: functional; conditions: read-out: MIC100
Salmonella typhimurium = assay: Antibacterial activity against Salmonella typhimurium ATCC 13311 assessed as inhibition of bacterial growth incubated for 18 hrs; format: functional, Salmonella enterica subsp. enterica serovar Typhimurium; conditions: Salmonella enterica, read-out: MIC100
Escherichia coli [9] = assay: Antibacterial activity against Escherichia coli ATCC BAA-2469 expressing NDM-1 assessed as inhibition of bacterial growth incubated for 18 hrs; format: functional; conditions: read-out: MIC100
Pseudomonas aeruginosa [10] = assay: Antibacterial activity against efflux-deficient Pseudomonas aeruginosa PAO750 assessed as inhibition of bacterial growth incubated for 18 hrs; format: functional; conditions: read-out: MIC100
Citrobacter freundii = assay: Antibacterial activity against Citrobacter freundii ATCC 8090 assessed as inhibition of bacterial growth incubated for 18 hrs; format: functional; conditions: read-out: MIC100
Escherichia coli [11] = assay: Antibacterial activity against wild-type Escherichia coli ATCC 25922 assessed as inhibition of bacterial growth by measuring fold increase in MIC incubated for 18 hrs in presence of 50% heat inactivated human serum relative to control; format: functional
Pseudomonas aeruginosa [12] = assay: Antibacterial activity against wild-type Pseudomonas aeruginosa PAO1 assessed as inhibition of bacterial growth incubated for 24 hrs; format: functional; conditions: read-out: MIC100
Escherichia coli [13] = assay: Antibacterial activity against wild-type Escherichia coli ATCC 25922 assessed as inhibition of bacterial growth incubated for 18 hrs in presence of 50% heat inactivated human serum; format: functional; conditions: read-out: MIC100
[14] = Binding affinity to gram negative bacterial lipid II assessed as dissociation constant by ITC analysis; set-up: species or system Bacteria
[15] = Hemolytic activity in human red blood cells at 400 ug/ml incubated for 45 mins by spectrophotometric analysis relative to control; format: toxicity, cell-based, Erythrocyte; conditions: red blood cells (erythrocytes), at 400 µg/mL, read-out: Activity
Escherichia coli [16] = assay: Antibacterial activity against Escherichia coli ATCC 25922 harboring tolC knock-out assessed as inhibition of bacterial growth incubated for 18 hrs; format: functional; conditions: read-out: MIC100
[17] = Hydrophobicity of compound assessed as %MeCN at peak elution by RP-HPLC analysis; format: physicochemical
Escherichia coli [18] = assay: Antibacterial activity against Escherichia coli ATCC 25922 harboring hldE knock-out assessed as inhibition of bacterial growth incubated for 18 hrs; format: functional; conditions: read-out: MIC100
Klebsiella pneumoniae [19] = assay: Antibacterial activity against wild-type Klebsiella pneumoniae ATCC 13883 assessed as inhibition of bacterial growth incubated for 18 hrs in presence of 50% heat inactivated human serum; format: functional; conditions: read-out: MIC100
Escherichia coli [20] = assay: Antibacterial activity against wild-type Escherichia coli ATCC 25922 assessed as inhibition of bacterial growth incubated for 18 hrs; format: functional; conditions: read-out: MIC100
Acinetobacter baumannii = assay: Antibacterial activity against wild-type Acinetobacter baumannii ATCC 19606 assessed as inhibition of bacterial growth incubated for 20 hrs; format: functional; conditions: read-out: MIC100
Staphylococcus aureus [21] = assay: Antibacterial activity against […] assessed as inhibition of bacterial growth incubated for 18 hrs; format: functional; conditions: ATCC 29213, read-out: MIC100
Lipopolysaccharide (LPS) = assay: Binding affinity to Escherichia coli O55:B5 LPS assessed as dissociation constant by ITC analysis; format: subcellular
Bacteria = assay: Binding affinity to gram negative bacterial lipid II at 250 uM by ITC analysis
[22] = Drug localization in cytoplasm of Escherichia coli ATCC 25922 at 10 uM incubated for 10 mins by LC-MS/MS analysis; format: ADME, subcellular
[23] = Drug uptake in Escherichia coli ATCC 25922 at 10 uM incubated for 10 mins by LC-MS/MS analysis; format: ADME

| Structure (SMILES) | IC50 at 40 h [5] | MIC (Klebsiella pneumoniae [7]) | fold change (FC) (Escherichia coli [11]) | MIC (Pseudomonas aeruginosa [12]) | MIC (Escherichia coli [13]) | hemolysis at 0.75 h, 400 ug/ml [15] | MIC (Escherichia coli [16]) | MeCN percentage at peak elution [17] | MIC (Escherichia coli [18]) | MIC (Klebsiella pneumoniae [19]) | MIC (Escherichia coli [20]) | MIC (Acinetobacter baumannii) | MIC (Staphylococcus aureus [21]) | also measured |
| --- | --- | --- | --- | --- | --- | --- | --- | --- | --- | --- | --- | --- | --- | --- |
| O=C(O)c1cn(C2CC2)c2cc(N3CCNCC3)c(F)cc2c1=O [CIPROFLOXACIN] | > 170 µg/mL | 0.032 µg/mL (≈ 0.0966 µM) |  |  |  |  |  |  |  |  |  |  |  | MIC (Serratia marcescens): 0.032 µg/mL (≈ 0.0966 µM); MIC (Providencia stuartii): 0.016 µg/mL (≈ 0.0483 µM); MIC (Escherichia coli [1]): > 1 µg/mL; MIC (Escherichia coli [2]): > 1 µg/mL; MIC (Klebsiella pneumoniae [3]): 0.003 µg/mL (≈ 0.00905 µM); MIC (Klebsiella pneumoniae [4]): > 1 µg/mL; MIC (Escherichia coli [6]): > 1 µg/mL; MIC (Morganella morganii): 0.002 µg/mL (≈ 0.00604 µM); MIC (Klebsiella aerogenes): 0.008 µg/mL (≈ 0.0241 µM); MIC (Proteus mirabilis): 0.016 µg/mL (≈ 0.0483 µM); MIC (Staphylococcus aureus [8]): 1 µg/mL (≈ 3.02 µM); MIC (Salmonella typhimurium): 0.004 µg/mL (≈ 0.0121 µM); MIC (Escherichia coli [9]): > 1 µg/mL; MIC (Pseudomonas aeruginosa [10]): 0.004 µg/mL (≈ 0.0121 µM); MIC (Citrobacter freundii): 0.004 µg/mL (≈ 0.0121 µM) |
| CC[C@H](C)[C@@H](NC(=O)[C@@H](NC(=O)[C@H](CCC(=O)O)NC(=O)[C@H](Cc1ccccc1)NC(=O)[C@@H](CCN)NC(=O)[C@H](CCN)NC(=O)[C@H](CO)NC(=O)[C@@H](Cc1c[nH]c2ccccc12)NC(=O)[C@@H](CO)NC(=O)CNC(=O)[C@@H](CCN)NC(=O)[C@H](NC(=O)[C@H](C)N)C(C)C)C(C)(C)C)C(=O)N[C@@H](C)C(N)=O | > 170 µg/mL | 8 µg/mL (≈ 5.41 µM) | 8 | > 64 µg/mL | 2 µg/mL | 6% | 0.5 µg/mL (≈ 0.338 µM) | 41.8% | > 64 µg/mL | 0.125 µg/mL | 16 µg/mL (≈ 10.8 µM) | 64 µg/mL (≈ 43.3 µM) | > 64 µg/mL | Kd [14]: 2.15 µM |
| CC[C@H](C)[C@@H](NC(=O)[C@@H](NC(=O)[C@H](CCC(=O)O)NC(=O)[C@H](Cc1ccccc1)NC(=O)[C@@H](CCN)NC(=O)[C@H](CCN)NC(=O)[C@H](CO)NC(=O)[C@@H](Cc1c[nH]c2ccccc12)NC(=O)[C@@H](CO)NC(=O)CNC(=O)[C@@H](CCN)NC(=O)[C@H](N)C(C)C)C(C)(C)C)C(=O)N[C@@H](C)C(N)=O | 93 µg/mL (≈ 66.1 µM) | 2 µg/mL (≈ 1.42 µM) | 2 | 16 µg/mL (≈ 11.4 µM) | 2 µg/mL | 2.6% | 0.25 µg/mL (≈ 0.178 µM) | 41% | 0.125 µg/mL (≈ 0.0888 µM) | 4 µg/mL | 4 µg/mL (≈ 2.84 µM) | > 64 µg/mL | > 64 µg/mL | Kd (Lipopolysaccharide (LPS)): 16.7 µM; Activity (Bacteria): inactive |
| CC[C@H](C)[C@@H](NC(=O)[C@@H](NC(=O)[C@H](CCC(=O)O)NC(=O)[C@H](Cc1ccccc1)NC(=O)[C@@H](CCN)NC(=O)[C@H](CCN)NC(=O)[C@H](CO)NC(=O)[C@@H](Cc1c[nH]c2ccccc12)NC(=O)[C@@H](CO)NC(=O)CNC(=O)[C@@H](CCN)NC(=O)[C@H](N)C(C)C)C(C)(C)C)C(=O)N[C@@H](C)C(=O)O |  | 4 µg/mL (≈ 2.84 µM) |  |  |  | 86.3% |  |  |  |  | 16 µg/mL (≈ 11.4 µM) |  |  | Drug uptake [22]: Active; Drug uptake [23]: Active |
